{"source": "paper PMC11002875", "about": "“Linking triphenylphosphonium cation to a bicyclic hydroquinone improves their antiplatelet effect via the regulation of mitochondrial function” (Redox Biology, 2024)", "key": {"[1]": {"test_system": "platelet-rich plasma (PRP)", "assay": "Clot retraction", "parameters": "species or system Human", "conditions": "10 μM; thrombin 0.5 Units/mL; 2 h", "protocol": "Clot retraction. Blood was obtained in 3.2% citrate tubes, which were centrifuged for 12 min at 250 g to obtain platelet-rich plasma (PRP). The assay was prepared in Khan tubes by adding 750 μL of tyrodes buffer without calcium, 200 μL of PRP, and 5 μL of red blood cells; the mixture was treated with NP4 10 μM or vehicle and incubated for 10 min. A glass rod was positioned in the center of the tube (as a support for clot adhesion) and clot retraction was initiated by adding 50 μl of 10 Units/mL thrombin (final concentration 0.5 Units/mL). Photographs were recorded at 0; 15; 30; 60; 90; and 120 min time intervals. The clots formed after 2 h were weighed to quantify retraction."}, "Whole blood": {"test_system": "Whole blood", "assay": "Bleeding time in vitro, Innovance PFA-200 closure time", "parameters": "species or system Human", "conditions": "10 μM, 10 min", "protocol": "Bleeding time in vitro Innovance PFA-200 system. Blood was obtained in 3.2% citrate tubes which were allowed to settle for 30 min before the test. Whole blood was mixed with NP4 10 μM and incubated for 10 min. Subsequently, the sample was loaded into the Collagen/Epinephrine or Collagen/ADP cartridge and the closure time was measured in the Innovance PFA-200 system (Siemens Healthcare Diagnostics Products, Munich, Germany). Eptifibatide 10 μM was used as a control."}, "Washed platelets [2]": {"test_system": "Washed platelets", "assay": "Platelet aggregation in washed platelets (aggregometer)", "assay_type": "cell-based, Human", "conditions": "for IC50: Homo sapiens, Platelet", "protocol": "(§1) Human platelet purification. The blood sample was obtained from voluntary donors (10 days without antiplatelet medication) who agreed to participate after signing informed consent (Scientific Ethics Committee of the University of Talca N° 04–2022). Briefly, blood anticoagulated with acid-citrate-dextrose (ACD) was obtained in a 4:1 v/v ratio. The sample was centrifuged for 12 min at 250 g to obtain platelet-rich plasma (PRP). Subsequently, the PRP was centrifuged for 8 min at 900 g to obtain the platelet pellet. The plasma supernatant was removed, and the platelets were resuspended in Tyrodes buffer without calcium plus ACD in a ratio of 5:1 v/v. The platelets were centrifuged once more for 8 min at 900 g and the pellet was resuspended in Tyrodes buffer without calcium. Finally, the platelets were counted (Mindray BC-3000 Plus hematology counter, Japan), adjusted to the desired concentration, and used within 3 h.\nPlatelet aggregation. Washed platelets (200-250 × 10^6 platelets/mL) were preincubated with 2 mM CaCl2 and then with the compounds under study for 5 min at 37 °C in the aggregometer (Agg RAM- Helena Biosciences). Aggregation was initiated with the agonists: collagen 2 μg/mL; convulxin 20 ng/mL; TRAP-6 (Thrombin receptor activator peptide 6) 5 μM; PMA (Phorbol myristate acetate) 100 nM or arachidonic acid 250 μg/mL. The aggregation curve was evaluated for 5 min at 37 °C in shaking at 1000 rpm."}, "Washed platelets [3]": {"test_system": "Washed platelets", "assay": "Cellular cytotoxicity by release of lactate dehydrogenase (LDH)", "assay_type": "cell-based, Human", "conditions": "Supplementary Fig. 1", "protocol": "as §1\nCellular cytotoxicity by the release of lactate dehydrogenase (LDH). Washed platelets (200-250 × 10^6 platelets/mL) were incubated with the compounds under study or vehicle for 15 min at 37 °C. Then, the platelets were centrifuged at 900 g for 8 min to collect the supernatant. […] The absorbance was analyzed at 490 nm (Microplate Reader Thermo Scientific Multiskan Go, Finland)."}, "Washed platelets [4]": {"test_system": "Washed platelets", "assay": "Cell viability by Calcein-AM (flow cytometry)", "assay_type": "cell-based, Human", "conditions": "1, 2, 5, 10 and 20 μM; 15 min", "protocol": "as §1\nCell viability by Calcein-AM. Washed platelets (200-250 × 10^6 platelets/mL) were labeled with 0.1 μM Calcein-AM and incubated for 15 min at 37 °C protected from light. […] Viability was analyzed on the BD Facs Lyric Flow Cytometer (BD Biosciences, USA). The percentage of Calcein-negative platelets (without fluorescence) in the CD61-PE-positive subpopulation (BD Biosciences, San José, CA, USA) was identified as non-viable platelets. […]"}, "Washed platelets [5]": {"test_system": "Washed platelets", "assay": "Platelet activation markers in washed platelets (flow cytometry)", "assay_type": "cell-based, Human", "conditions": "collagen 2 μg/mL; compounds 1, 5 and 10 μM; vs activated control", "protocol": "as §1\nPlatelet activation markers. Washed platelets (200-250 × 10^6 platelets/mL) were incubated with the compounds (1, 5 and 10 μM), then activated with collagen 2 μg/mL and incubated for 5 min at 37 °C. Aliquots of the reaction were then collected and labeled separately with human antibodies (BD Biosciences, San José, CA, USA) for P-selectin, CD63, activated GPIIb/IIIa (PAC-1), and fibrinogen to assess the levels of each marker on the platelet membrane. The sample was acquired using the BD Facs Lyric flow cytometer (BD Biosciences, USA). Representative dot plots are available in Supplementary Figures 8-11 and 20-23. In the case of the activation markers P-selectin and bound fibrinogen in PRP, the same procedure for washed platelets was performed with representative dot plots available in Supplementary Figs. 15 and 16. The platelet population was identified with anti-CD61-PE or anti-CD61-FITC (BD Biosciences, San José, CA, USA)."}}, "note": "Like-named read-outs stand apart in the source and are kept apart here.", "data": [{"smiles": "Cc1c(C)c(O)c2c(c1O)C(=O)C(CCCC[P+](c1ccccc1)(c1ccccc1)c1ccccc1)=CC2(C)C.[Br-]", "note": "[NP4, (4-(5,8-dihydroxy-4,4,6,7-tetramethyl-1-oxo-1,4-dihydronaphthalen-2-yl)butyl)triphenyl phosphonium bromide]", "values": [{"measurement": "Clot retraction (clot weight)", "setting": "[1]", "result": "does not significantly alter"}, {"measurement": "Closure time PFA-200 Collagen/ADP", "setting": "Whole blood", "result": "does not significantly alter"}, {"measurement": "Closure time PFA-200 Collagen/Epinephrine", "setting": "Whole blood", "result": "does not significantly alter"}, {"measurement": "IC50", "setting": "Washed platelets [2]; read-out: IC50 for platelet aggregation, Convulxin", "result": "4.45 ± 0.65", "unit": "µM"}, {"measurement": "IC50", "setting": "Washed platelets [2]; PMA 100 nM, washed platelets, read-out: IC50 for platelet aggregation, PMA", "result": "> 20", "unit": "µM"}, {"measurement": "IC50", "setting": "Washed platelets [2]; TRAP-6 5 μM, washed platelets, read-out: IC50 for platelet aggregation, TRAP-6", "result": "7.4 ± 0.82", "unit": "µM"}, {"measurement": "IC50", "setting": "Washed platelets [2]; arachidonic acid 250 μg/mL, washed platelets, read-out: IC50 for platelet aggregation, Arachidonic Acid", "result": "> 20", "unit": "µM"}, {"measurement": "IC50", "setting": "Washed platelets [2]; collagen 2 μg/mL, washed platelets, read-out: IC50 for platelet aggregation, Collagen", "result": "2.62 ± 0.91", "unit": "µM"}, {"measurement": "Effect on platelet aggregation vs vehicle", "setting": "Washed platelets [2]; all tested concentrations, arachidonic acid 250 μg/mL", "result": "None of the NP4 concentrations showed any effect"}, {"measurement": "Effect on platelet aggregation vs vehicle", "setting": "Washed platelets [2]; compound 2 μM, collagen 2 μg/mL", "result": "significant effect"}, {"measurement": "Effect on platelet aggregation vs vehicle", "setting": "Washed platelets [2]; compound 5 μM, Convulxin 20 ng/mL", "result": "had an effect"}, {"measurement": "Effect on platelet aggregation vs vehicle", "setting": "Washed platelets [2]; compound 5 μM, TRAP-6 5 μM", "result": "had an effect"}, {"measurement": "Effect on platelet aggregation vs vehicle", "setting": "Washed platelets [2]; compound 5 μM, collagen 2 μg/mL", "result": "had an effect"}, {"measurement": "Effect on platelet aggregation vs vehicle", "setting": "Washed platelets [2]; compound 10 μM, Convulxin 20 ng/mL", "result": "significantly decreases"}, {"measurement": "Effect on platelet aggregation vs vehicle", "setting": "Washed platelets [2]; compound 10 μM, PMA 100 nM", "result": "significantly decreases"}, {"measurement": "Effect on platelet aggregation vs vehicle", "setting": "Washed platelets [2]; compound 10 μM, TRAP-6 5 μM", "result": "significantly decreases"}, {"measurement": "Effect on platelet aggregation vs vehicle", "setting": "Washed platelets [2]; compound 10 μM, collagen 2 μg/mL", "result": "significantly decreases"}, {"measurement": "Safe concentrations (LDH release)", "setting": "Washed platelets [3]", "result": "below 10 μM"}, {"measurement": "Platelet viability (Calcein-AM negative platelets)", "setting": "Washed platelets [4]", "result": "none of the concentrations evaluated for NP4 showed significant effects"}, {"measurement": "Bound fibrinogen platelet activation marker", "setting": "Washed platelets [5]", "result": "at the 10 μM concentration was able to significantly decrease"}, {"measurement": "CD63 platelet activation marker", "setting": "Washed platelets [5]", "result": "at the 10 μM concentration was able to significantly decrease"}, {"measurement": "P-selectin platelet activation marker", "setting": "Washed platelets [5]", "result": "at the 10 μM concentration was able to significantly decrease"}, {"measurement": "PAC-1 (activated GPIIb/IIIa) platelet activation marker", "setting": "Washed platelets [5]", "result": "at the 10 μM concentration was able to significantly decrease"}]}]}
